In US20160235068A1, “CONTROLLED RELEASE PARTICLES, PRODUCTION METHOD THEREOF, MOLDING MATERIAL, AND MOLDED ARTICLE” (priority 2013, published 2016):
Converted amounts (≈) assume the structure as drawn.

Legend:
[1] = cited from earlier work
[2] = Alkali-resistance test (Test A), suspending agent of controlled release particles; assay type: physicochemical; conditions: 168 h, 0.05 %
Protocol: 1 mL of the diluted suspending agent was weighed in a glass bottle, and 4 mL of a saturated calcium hydroxide solution was added thereto, thereby preparing a test solution. The test solution was allowed to stand in a constant temperature of 40° C.
After 7 days from allowing the test solution to stand, 5 mL of acetonitrile was added to the test solution, the antibiotic compound was extracted, the amount of the antibiotic compound was determined with HPLC, and the remaining ratio of the antibiotic compound was calculated.

Compound	solubility to water [1] [mg/mL]	Alkali-resistance (Test A) Remaining ratio (%) of antibiotic compound [2] [%]
CN/C(=N\[N+](=O)[O-])NCc1cnc(Cl)s1 [Clothianidin, (E)-1-(2-chlorothiazole-5-ylmethyl)-3-methyl-2-nitroguanidine]	0.33 (≈ 1320 µM)	
O=[N+]([O-])NC1=NCCN1Cc1ccc(Cl)nc1 [Imidacloprid, 1-(6-chloro-3-pyridylmethyl)-N-nitroimidazolidin-2-ylideneamine]		0
